Assay results from patent publication US10844023B2 (Washington University, priority 2017, dated 2020).

Tested on: Mfn2 null MEFs
Assay: Mitochondrial elongation (aspect ratio) fusogenicity assay
Format: cell-based, mouse
Parameters: % long compare to B: dose or concentration left out as unconfirmed
Conditions: for % long compare to B: mitochondrial elongation relative to Cpd B (B01 = 100), compound overnight as printed (FIG. 48); for Fusogenicity Rank: rank order of aspect ratio among 44 soluble library compounds
From the text: A cultured murine embryonic fibroblast assay system was used in which mitochondrial elongation (an increase in aspect ratio) reflects enhanced mitochondrial fusion.
A pharmacophore model was generated based on the interactions of HR1 and HR2 domains in the calculated structural model of Mfn2 in the closed conformation. The key features included hydrophobic interactions involving Mfn2 HR1: Val372 and Met376, and aromatic interactions and hydrogen bonding involving Mfn2 HR1 His380. […] A library comprising ˜14 million commercially available compounds was prepared in silico and evaluated using PHASE to fit these criteria. Top ranked hits were clustered, and filtered based on pharmacological properties using Qikprop. The top 55 (see TABLE 4) commercially available small molecules conforming to the model were selected for functional screening and purchased in 1 mg aliquots. […] Images were acquired by confocal microscopy. Each compound was scored for fusogenicity (see e.g., FIG. 24A) and % cell death (see e.g., FIG. 24B).
Cells were excited with 408 nm (Hoechst), […] (MitoTracker Green and Calcein AM, GFP), or 637 nm (TMRE, MitoTracker Orange, Ethidium homodimer-1, and AF594-Dextran) laser diodes. For mitochondrial elongation studies mitochondrial aspect ratio (long axis/short axis) was calculated using automated edge detection and Image J software. Mitochondrial depolarization was calculated as % of green mitochondria visualized on MitoTracker Green and TMRE merged images, expressed as green/(green+yellow mitochondria)×100.

SMILES	% long compare to B (Mfn2 null MEFs) [%]	Aspect ratio (MEAN ± SEM) (Mfn2 null MEFs, overnight, treatment with 1 μM compound (footnote))	Fusogenicity Rank
NC(=O)c1c(NC(=O)CSc2nnc(-c3ccccc3)n2-c2ccccc2)sc2c1CCCC2 [1-G2, 2-{2-[(diphenyl-4H-1,2,4-triazol-3-yl)sulfanyl]acetamido}-4,5,6,7-tetrahydro-1-benzothiophene-3-carboxamide]	20	–	–
CC(Sc1nnc(C2CC2)n1-c1ccccc1)C(=O)Nc1sc2c(c1C#N)CCCCC2 (stereo not shown) [1-G5, N-{3-cyano-4H,5H,6H,7H,8H-cyclohepta[b]thiophen-2-yl}-2-[(5-cyclopropyl-4-phenyl-4H-1,2,4-triazol-3-yl)sulfanyl]propana-mide]	7	–	–
CC(Sc1nnc(Cc2cccs2)n1C1CC1)C(=O)Nc1sc2c(c1C(N)=O)CCC2 (stereo not shown) [1-G6, 2-[2-({4-cyclopropyl-5-[(thiophen-2-yl)methyl]-4H-1,2,4-triazol-3-yl}sulfanyl)propanamido]-4H,5H,6H-cyclopenta[b]thio-phene-3-carboxamide]	9	–	–
CC(Sc1nccn1Cc1ccccc1)C(=O)Nc1sc2c(c1C(N)=O)CCC2 (stereo not shown) [1-G7, 2-{2-[(1-benzyl-1H-imidazol-2-yl)sulfanyl]propanamido}-4H,5H,6H-cyclopenta[b]thio-phene-3-carboxamide]	3	–	–
CC(Sc1nncn1-c1ccccc1)C(=O)Nc1sc2c(c1C(N)=O)CCC2 (stereo not shown) [1-G8, 2-{2-[(4-phenyl-4H-1,2,4-triazol-3-yl)sulfanyl]propanamido}-4H,5H,6H-cyclopenta[b]thio-phene-3-carboxamide]	14	–	–
Cc1nnc(SCC(=O)Nc2sc3c(c2C(N)=O)CCC3)n1-c1ccccc1 [1-H3, 2-{2-[(5-methyl-4-phenyl-4H-1,2,4-triazol-3-yl)sulfanyl]acet-amido}-4H,5H,6H-cyclo-penta[b]thiophene-3-carboxamide]	10	–	–
NC(=O)c1c(NC(=O)CSc2nnc(-c3ccncc3)n2-c2ccc(F)cc2)sc2c1CCC2 [1-H5, 2-(2-{[4-(4-fluorophenyl)-5-(pyridin-4-yl)-4H-1,2,4-triazol-3-yl]sulfanyl]acetamido)-4H,5H,6H-cyclopenta[b]thio-phene-3-carboxamide]	23	–	–
CC(Sc1nnc(Cc2ccccc2)n1C)C(=O)Nc1sc2c(c1C(N)=O)CCC2 (stereo not shown) [1-H6, 2-{2-[(5-benzyl-4-methyl-4H-1,2,4-triazol-3-yl)sulfanyl]propanamido}-4H.5H.6H-cyclopenta[b]-thiophene-3-carboxamide]	8	–	–
Cn1c(Cc2ccccc2)nnc1SCC(=O)Nc1sc2c(c1C(N)=O)CCC2 [1-H7, 2-{2-[(5-benzyl-4-methyl-4H-1,2,4-triazol-3-yl)sulfanyl]-acetamido}-4H,5H,6H-cyclopenta[b]thiophene-3-carboxamide]	6	–	–
CC(Sc1nnc(-c2ccccc2)n1-c1ccccc1)C(=O)Nc1sc2c(c1C(N)=O)CCC2 (stereo not shown) [1-H8, 2-{2-[(diphenyl-4H-1,2,4-triazol-3-yl)sulfanyl]propan-amido}-4H,5H,6H-cyclo-penta[b]thiophene-3-carboxamide]	−4	–	–
O=C(NCCSCc1ccccc1)NC1CCCC1 [1-H9, 1-[2-(benzylsulfanyl)ethyl]-3-cyclopentylurea]	29	–	–
NC(=O)c1c(NC(=O)CSc2nnc(C3CC3)n2Cc2ccccc2)sc2c1CCCC2 [1-H11, 2-{2-[(4-benzyl-5-cyclopropyl-4H-1,2,4-triazol-3-yl)-sulfanyl]acetamido}-4,5,6,7-tetrahydro-1-benzothiophene-3-carboxamide]	15	–	–
Cn1c(CC(=O)Nc2ccccc2)nnc1SCC(=O)Nc1sc2c(c1C(=O)NCc1ccccc1)CCCC2 [2-A1, N-benzyl-2-[2-({4-methyl-5-[(phenylcarbamoyl)methyl]-4H-1,2,4-triazol-3-yl}sulfanyl)acetamido]-4,5,6,7-tetrahydro-1-benzothiophene-3-carboxamide]	26	–	–
CCn1c(CCc2ccccc2)nnc1SCC(=O)Nc1sc2c(c1C(N)=O)CCC(C)C2 (stereo not shown) [2-A4, 2-(2-{[4-ethyl-5-(2-phenylethyl)-4H-1,2,4-triazol-3-yl]sulfanyl}acetamido)-6-methyl-4,5,6,7-tetrahydro-1-benzothiophene-3-carboxamide]	3	–	–
Cc1nnc(SCC(=O)Nc2sc3c(c2C(N)=O)CCC3)n1C [2-A5, 2-{2-[(dimethyl-4H-1,2,4-triazol-3-yl)sulfanyl]acetamido}-4H,5H,6H-cyclopenta[b]thio-phene-3-carboxamide]	2	–	–
O=C(Nc1cc(CSCCOC(=O)C2C3CCCCC32)ccn1)C1C2CCCCC21 (stereo not shown) [2-{[(2-{bicyclo[4.1.0]heptane-7-amido}pyridin-4-yl)methyl]sulfanyl}ethyl bicyclo[4.1.0]heptane-7-carboxylate]	–	4.8 ± 1.0	10
CC(Sc1nnc(N2CCOCC2)n1Cc1ccccc1)C(=O)Nc1ccc2c(c1)OCO2 (stereo not shown) [A01, N-(2H-1,3-benzodioxol-5-yl)-2-{[4-benzyl-5-(morpholin-4-yl)-4H-1,2,4-triazol-3-yl]sulfanyl)propana-mide]	−14	–	–
O=C(NCCCCc1ccccc1)Nc1ccc(F)cc1 [A2, 3-(4-fluorophenyl)-1-(4-phenylbutyl)urea]	−4	–	–

SMILES	% long compare to B (Mfn2 null MEFs) [%]	Aspect ratio (MEAN ± SEM) (Mfn2 null MEFs, overnight, treatment with 1 μM compound (footnote))	Fusogenicity Rank
Cc1cccc(NC(=O)NCCCCc2ccccc2)c1 [A3, 3-(3-methylphenyl)-1-(4-phenylbutyl)urea]	32	–	–
Cc1ccc(NC(=O)NCCCCc2ccccc2)cc1 [A4, 3-(4-methylphenyl)-1-(4-phenylbutyl)urea]	75	–	–
CC(Sc1ccc(Br)cc1)C(=O)Nc1ccc2c(c1)OCCO2 (stereo not shown) [A05, 2-[(4-bromophenyl)sulfanyl]-N-(2,3-dihydro-1,4-benzodioxin-6-yl)propanamide]	−2	–	–
Cc1ccccc1NC(=O)NCCCCc1ccccc1 [A5, 3-(2-methylphenyl)-1-(4-phenylbutyl)urea]	7	–	–
Cc1ccc2c(c1)SC(C(=O)NCc1ccc(N3CCCN(C)CC3)nc1)C2 (stereo not shown) [A07, 6-methyl-N-{[6-(4-methyl-1,4-diazepan-1-yl)pyridin-3-yl]methyl}-2,3-dihydro-1-benzothiophene-2-carboxamide]	14	–	–
CC(Sc1nc(CN2CCOCC2)nc2ccccc12)C(=O)Nc1cccc(C(F)(F)F)c1 (stereo not shown) [A08, 2-({2-[(morpholin-4-yl)methyl]quinazolin-4-yl}sulfanyl)-N-[3-(trifluoromethyl)-phenyl]propanamide]	47	–	–
CC(Sc1nnc(N2CCOCC2)n1Cc1ccccc1)C(=O)Nc1ccc2c(c1)OCCO2 (stereo not shown) [A09, 2-{[4-benzyl-5-(morpholin-4-yl)-4H-1,2,4-triazol-3-yl]sulfanyl}-N-(2,3-dihydro-1,4-benzodioxin-6-yl)propanamide]	55	–	–
CC1CCCCC1NC(=O)NCCSCc1ccccc1 (stereo not shown) [A10, 1-[2-(benzylsulfanyl)ethyl]-3-(2-methylcyclohexyl)urea]	71	–	4
Cc1ccc(-n2nnnc2SC(C)c2nc(-c3nnc[nH]3)no2)cc1 (stereo not shown) [A11, 1-(4-methylphenyl)-5-({1-[3-(4H-1,2,4-triazol-3-yl)-1,2,4-oxadiazol-5-yl]ethyl}sulfanyl)-1H-1,2,3,4-tetrazole]	4	–	–
NC(=O)c1c(NC(=O)CSc2ccccc2)sc2c1CCC2 [B2, 2-[2-(phenylsulfanyl)acetamido]-4H,5H,6H-cyclopenta[b]thiophene-3-carboxamide]	12	–	–
CC(Sc1nnc(N2CCOCC2)n1Cc1ccccc1)C(=O)Nc1ccc2[nH]c(=O)[nH]c2c1 (stereo not shown) [B03, 2-{[4-benzyl-5-(morpholin-4-yl)-4H-1,2,4-triazol-3-yl]sulfanyl}-N-(2-oxo-2,3-dihydro-1H-1,3-benzodiazol-5-yl)propanamide]	39	–	–
S=C(NCCSCc1ccco1)NC1CC2CCC1C2 (stereo not shown) [B04, 1-{bicyclo[2.2.1]heptan-2-yl}-3-(2-{[(furan-2-yl)methyl]sulfanyl}ethyl)thiourea]	9	–	–
CC(Sc1nnc(C2CC2)n1Cc1ccccc1)C(=O)Nc1sccc1C(N)=O (stereo not shown) [B4, 2-{2-[(4-benzyl-5-cyclopropyl-4H-1,2,4-triazol-3-yl)sulfanyl]propanamido}thiophene-3-carboxamide]	4	–	–
CC(C)(C)NC(=O)NC(=O)COC(=O)CSCc1nc2scc(-c3ccccc3)c2c(=O)[nH]1 [B07, 2-[(tert-butylcarbamoyl)amino]-2-oxoethyl 2-[({4-oxo-5-phenyl-3H,4H-thieno[2,3-d]pyrimidin-2-yl}methyl)sulfanyl] acetate]	64	–	–
Cc1ccc(-c2noc(CSCCCC(=O)Nc3c(C)cccc3C)n2)cc1F [B08, N-(2,6-dimethylphenyl)-4-({[3-(3-fluoro-4-methylphenyl)-1,2,4-oxadiazol-5-yl]methyl}sulfanyl)-butanamide]	12	–	–
O=C(NCCSCc1ccc(Br)s1)C1CCCN(C(=O)c2cccs2)C1 (stereo not shown) [B09, N-(2-{[(5-bromothiophen-2-yl)methyl]sulfanyl}-ethyl)-1-(thiophene-2-carbonyl)piperidine-3-carboxamide]	36	–	–
Cc1cccc(C)c1NC(=O)CCCSCc1ncc(C(C)C)o1 [B10, N-(2,6-dimethylphenyl)-4-({[5-(propan-2-yl)-1,3-oxazol-2-yl]methyl}sulfanyl)-butanamide]	6	–	–
